{"source": "PubChem BioAssay AID2060355", "about": "(Molecular Pharmacology Branch, DTP, NCI, 2025)", "test_system": "485368-065-R4-J2-PDC spheroids with HUVEC/MSC, viability", "assay": "Anticancer human tumor 485368-065-R4-J2-PDC patient-derived pancreatic carcinoma cell line growth inhibition [TAK]", "conditions": "for IC50: curve of first compound; for viability, T/C: stronger effect = lower value", "source_text": "Combinatorial screen of targeted agents with TAK-243 and ipatasertib in multi-cell type tumor spheroids\nA high-throughput screen of multi-cell type tumor spheroids was designed to identify active combinations of targeted small molecules and TAK-243 or ipatasertib. Complex spheroids include a stromal component modeled by human endothelial cells (HUVEC) and fibroblasts modeled by human mesenchymal stem cells (MSCs). The concentration ranges selected for each drug and investigational agent were based upon clinically achievable concentrations if the clinical Cmax of the agent was known.\nCompounds. The drugs and investigational agents: TAK-243 (785004), ipatasertib (767898), everolimus (733504), selumetinib (741078), bortezomib (756655), trametinib (758246), ixazomib (758254), vemurafenib (761431), dabrafenib (764134), sapanisertib (764658), alpelisib (765974), and copanlisib (816437), were obtained from the National Cancer Institute (NCI) Developmental Therapeutics Program Chemical Repository. The FDA-approved anticancer drug set is available from the NCI Developmental Therapeutics Program. […] The stock solutions were prepared in dimethyl sulfoxide (DMSO, Sigma-Aldrich, St. Louis, MO, cat. D2650) at 800-fold the tested concentration and stored at -70 degrees C prior to their use. All drugs and investigational agents were tested over a range starting from a high concentration at or near the clinical Cmax and decreasing in half-log increments. If the clinical Cmax for an agent had not been determined, the highest concentration tested was 10 microM.\nNCI60 Cell Culture. NCI60 cell lines were obtained from the NCI Developmental Therapeutics Program Tumor Repository. For each lot of cells, the Repository performed Applied Biosystems AmpFLSTR Identifiler testing with PCR amplification to confirm consistency with the published Identifier STR profile for each cell line. Cells were kept in continuous culture for no more than 20 passages. The optimal seeding densities for each of the cell lines at each time point assessed were determined prior to performing the concentration response studies. Briefly, the NCI60 human tumor lines were grown as monolayers in RPMI 1640 medium supplemented with 10% FBS and 2 mmol/L L-glutamine.\nAn additional 2 lines were from the NCI60 cell line panel including melanomas, MALME-3M and SK-MEL-2. Pooled donor human umbilical vein endothelial cells (HUVEC, Lonza, cat. CC-2519) and human mesenchymal stem cells (hMSC, Lonza, cat. PT-2501) were purchased from Lonza (Walkersville, MD).\nPDMR cell lines were grown in complete medium (DC medium): Dulbecco's modified Eagle's medium (DMEM)/F12 supplemented with 5% fetal bovine serum (FBS), 2 mM L-glutamine, 100 U/mL penicillin and 100 µg/ml streptomycin, 0.4 µg/ml hydrocortisone, 10 ng/ml epidermal growth factor (EGF) recombinant human protein, 24 µg/mL adenine, and 0.1 mg/mL primocin. During culture from frozen stock vials, PDMR cells were cultured in the same medium containing 10 µM Y-27632 (see Table 3). The PDCs were cultured in complete DMEM/F12 media without 10 microM Y-27632 dihydrochloride for at least two passages prior to the screen. The pooled donor HUVEC and hMSC were cultured in endothelial cell growth medium 2 (PromoCell, Heidelberg, Germany, cat. C-22011) and mesenchymal stem cell growth medium 2 (PromoCell, cat. C-28009), respectively. For all experiments, HUVEC and hMSC were used at passages </=5.\nFor the pre-screen, cell seeding densities were determined from a titration spanning the range from 5,000 to 313 cells per well. The mct-spheroids including 60% malignant cells, 25% HUVEC and 15% MSC dispensed as a mixture into U-bottom Ultra-Low Attachment 384-well plates (Corning, NY)\nHigh-throughput Drug Combination Screening.\nPrior to their inoculation into 384-well plates, malignant cells, HUVEC, and hMSC were removed from T flasks using TrypLE express (Thermo Fisher Scientific, cat. 12605036) and harvested by centrifugation for 5 min at 233 x g. […]", "data": [{"compound": "CC(=O)Nc1cccc(-n2c(=O)n(C3CC3)c(=O)c3c(Nc4ccc(I)cc4F)n(C)c(=O)c(C)c32)c1", "note": "+ CC(C)NCC(C(=O)N1CCN(c2ncnc3c2C(C)CC3O)CC1)c1ccc(Cl)cc1;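 further: spheroids exposed to compounds for seven days before readout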;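 on viability, T/C: 100% = DMSO vehicle control wells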", "values": [{"measurement": "IC50", "setting": "second compound 0.3 µM", "value": 0.00349, "unit": "µM"}, {"measurement": "IC50", "setting": "second compound 0.949 µM", "value": 0.00161, "unit": "µM"}, {"measurement": "IC50", "setting": "second compound 3 µM", "value": 0.00123, "unit": "µM"}, {"measurement": "IC50", "setting": "second compound 9.49 µM", "value": 0.000596, "unit": "µM"}, {"measurement": "IC50", "setting": "second compound 30 µM", "value": 0.000316, "unit": "µM"}, {"measurement": "viability, T/C", "setting": "second compound 0.3 µM, first compound 94.9 pM", "value": 89.9, "unit": "%"}, {"measurement": "viability, T/C", "setting": "second compound 0.3 µM, first compound 0.0003 µM", "value": 76.2, "unit": "%"}, {"measurement": "viability, T/C", "setting": "second compound 0.3 µM, first compound 0.000949 µM", "value": 72.8, "unit": "%"}, {"measurement": "viability, T/C", "setting": "second compound 0.3 µM, first compound 0.003 µM", "value": 51.8, "unit": "%"}, {"measurement": "viability, T/C", "setting": "second compound 0.3 µM, first compound 0.00949 µM", "value": 33.5, "unit": "%"}, {"measurement": "viability, T/C", "setting": "second compound 0.3 µM, first compound 0.03 µM", "value": 20.4, "unit": "%"}, {"measurement": "viability, T/C", "setting": "second compound 0.949 µM, first compound 94.9 pM", "value": 94.2, "unit": "%"}, {"measurement": "viability, T/C", "setting": "second compound 0.949 µM, first compound 0.0003 µM", "value": 92.3, "unit": "%"}, {"measurement": "viability, T/C", "setting": "second compound 0.949 µM, first compound 0.000949 µM", "value": 61.8, "unit": "%"}, {"measurement": "viability, T/C", "setting": "second compound 0.949 µM, first compound 0.003 µM", "value": 34.3, "unit": "%"}, {"measurement": "viability, T/C", "setting": "second compound 0.949 µM, first compound 0.00949 µM", "value": 19.2, "unit": "%"}, {"measurement": "viability, T/C", "setting": "second compound 0.949 µM, first compound 0.03 µM", "value": 12.7, "unit": "%"}, {"measurement": "viability, T/C", "setting": "second compound 3 µM, first compound 94.9 pM", "value": 96.6, "unit": "%"}, {"measurement": "viability, T/C", "setting": "second compound 3 µM, first compound 0.0003 µM", "value": 88.2, "unit": "%"}, {"measurement": "viability, T/C", "setting": "second compound 3 µM, first compound 0.000949 µM", "value": 58.3, "unit": "%"}, {"measurement": "viability, T/C", "setting": "second compound 3 µM, first compound 0.003 µM", "value": 22, "unit": "%"}, {"measurement": "viability, T/C", "setting": "second compound 3 µM, first compound 0.00949 µM", "value": 12, "unit": "%"}, {"measurement": "viability, T/C", "setting": "second compound 3 µM, first compound 0.03 µM", "value": 8.82, "unit": "%"}, {"measurement": "viability, T/C", "setting": "second compound 9.49 µM, first compound 94.9 pM", "value": 89.8, "unit": "%"}, {"measurement": "viability, T/C", "setting": "second compound 9.49 µM, first compound 0.0003 µM", "value": 70.1, "unit": "%"}, {"measurement": "viability, T/C", "setting": "second compound 9.49 µM, first compound 0.000949 µM", "value": 36.3, "unit": "%"}, {"measurement": "viability, T/C", "setting": "second compound 9.49 µM, first compound 0.003 µM", "value": 15.8, "unit": "%"}, {"measurement": "viability, T/C", "setting": "second compound 9.49 µM, first compound 0.00949 µM", "value": 10.2, "unit": "%"}, {"measurement": "viability, T/C", "setting": "second compound 9.49 µM, first compound 0.03 µM", "value": 7.89, "unit": "%"}, {"measurement": "viability, T/C", "setting": "second compound 30 µM, first compound 94.9 pM", "value": 70.6, "unit": "%"}, {"measurement": "viability, T/C", "setting": "second compound 30 µM, first compound 0.0003 µM", "value": 50, "unit": "%"}, {"measurement": "viability, T/C", "setting": "second compound 30 µM, first compound 0.000949 µM", "value": 31.5, "unit": "%"}, {"measurement": "viability, T/C", "setting": "second compound 30 µM, first compound 0.003 µM", "value": 13.8, "unit": "%"}, {"measurement": "viability, T/C", "setting": "second compound 30 µM, first compound 0.00949 µM", "value": 10.2, "unit": "%"}, {"measurement": "viability, T/C", "setting": "second compound 30 µM, first compound 0.03 µM", "value": 7.05, "unit": "%"}]}, {"compound": "CC(C)CC(NC(=O)CNC(=O)c1cc(Cl)ccc1Cl)B1OC(=O)CC(CC(=O)O)(C(=O)O)O1", "note": "(stereo not given) + CC(C)NCC(C(=O)N1CCN(c2ncnc3c2C(C)CC3O)CC1)c1ccc(Cl)cc1", "values": [{"measurement": "IC50", "setting": "second compound 0.3 µM", "value": 0.0377, "unit": "µM"}, {"measurement": "IC50", "setting": "second compound 0.949 µM", "value": 0.0313, "unit": "µM"}, {"measurement": "IC50", "setting": "second compound 3 µM", "value": 0.0256, "unit": "µM"}, {"measurement": "IC50", "setting": "second compound 9.49 µM", "value": 0.0248, "unit": "µM"}, {"measurement": "IC50", "setting": "second compound 30 µM", "value": 0.0197, "unit": "µM"}, {"measurement": "viability, T/C", "setting": "second compound 0.3 µM, first compound 0.000316 µM", "value": 89.7, "unit": "%"}, {"measurement": "viability, T/C", "setting": "second compound 0.3 µM, first compound 0.001 µM", "value": 93.9, "unit": "%"}, {"measurement": "viability, T/C", "setting": "second compound 0.3 µM, first compound 0.00316 µM", "value": 98.7, "unit": "%"}, {"measurement": "viability, T/C", "setting": "second compound 0.3 µM, first compound 0.01 µM", "value": 106, "unit": "%"}, {"measurement": "viability, T/C", "setting": "second compound 0.3 µM, first compound 0.0316 µM", "value": 56.7, "unit": "%"}, {"measurement": "viability, T/C", "setting": "second compound 0.3 µM, first compound 0.1 µM", "value": 12.8, "unit": "%"}, {"measurement": "viability, T/C", "setting": "second compound 0.949 µM, first compound 0.000316 µM", "value": 98.4, "unit": "%"}, {"measurement": "viability, T/C", "setting": "second compound 0.949 µM, first compound 0.001 µM", "value": 99, "unit": "%"}, {"measurement": "viability, T/C", "setting": "second compound 0.949 µM, first compound 0.00316 µM", "value": 97.5, "unit": "%"}, {"measurement": "viability, T/C", "setting": "second compound 0.949 µM, first compound 0.01 µM", "value": 106, "unit": "%"}, {"measurement": "viability, T/C", "setting": "second compound 0.949 µM, first compound 0.0316 µM", "value": 49.6, "unit": "%"}, {"measurement": "viability, T/C", "setting": "second compound 0.949 µM, first compound 0.1 µM", "value": 12.5, "unit": "%"}, {"measurement": "viability, T/C", "setting": "second compound 3 µM, first compound 0.000316 µM", "value": 103, "unit": "%"}, {"measurement": "viability, T/C", "setting": "second compound 3 µM, first compound 0.001 µM", "value": 99.6, "unit": "%"}, {"measurement": "viability, T/C", "setting": "second compound 3 µM, first compound 0.00316 µM", "value": 99.2, "unit": "%"}, {"measurement": "viability, T/C", "setting": "second compound 3 µM, first compound 0.01 µM", "value": 92.6, "unit": "%"}, {"measurement": "viability, T/C", "setting": "second compound 3 µM, first compound 0.0316 µM", "value": 40.5, "unit": "%"}, {"measurement": "viability, T/C", "setting": "second compound 3 µM, first compound 0.1 µM", "value": 9.51, "unit": "%"}, {"measurement": "viability, T/C", "setting": "second compound 9.49 µM, first compound 0.000316 µM", "value": 94.7, "unit": "%"}, {"measurement": "viability, T/C", "setting": "second compound 9.49 µM, first compound 0.001 µM", "value": 87.3, "unit": "%"}, {"measurement": "viability, T/C", "setting": "second compound 9.49 µM, first compound 0.00316 µM", "value": 89.5, "unit": "%"}, {"measurement": "viability, T/C", "setting": "second compound 9.49 µM, first compound 0.01 µM", "value": 92.6, "unit": "%"}, {"measurement": "viability, T/C", "setting": "second compound 9.49 µM, first compound 0.0316 µM", "value": 39, "unit": "%"}, {"measurement": "viability, T/C", "setting": "second compound 9.49 µM, first compound 0.1 µM", "value": 9.49, "unit": "%"}, {"measurement": "viability, T/C", "setting": "second compound 30 µM, first compound 0.000316 µM", "value": 76.9, "unit": "%"}, {"measurement": "viability, T/C", "setting": "second compound 30 µM, first compound 0.001 µM", "value": 80.2, "unit": "%"}, {"measurement": "viability, T/C", "setting": "second compound 30 µM, first compound 0.00316 µM", "value": 81, "unit": "%"}, {"measurement": "viability, T/C", "setting": "second compound 30 µM, first compound 0.01 µM", "value": 76.7, "unit": "%"}, {"measurement": "viability, T/C", "setting": "second compound 30 µM, first compound 0.0316 µM", "value": 31.3, "unit": "%"}, {"measurement": "viability, T/C", "setting": "second compound 30 µM, first compound 0.1 µM", "value": 7.82, "unit": "%"}]}]}
